The target in this experiment is T1, HIV-Protease (Human immunodeficiency virus type 1 group M subtype B, UniProt P04585).
T1 construct: Gereinigte HIV-Protease wurde mit synthetischem Peptid
Kind of experiment: HIV-specific protease enzyme test (purified HIV protease incubated with synthetic Gag cleavage-site peptide, cleavage products analysed by RP-HPLC). The following applies: for inhibition at 240 µg/mL: read-out: % Inhibition bei 240 µg/ml; for IC50: substance concentration causing 50% inhibition of protease activity, read-out: IC₅₀. It is filed as biochemical. The source says: Darüber hinaus wurde überraschend gefunden, daß die Verbindungen der allgemeinen Formel (I) eine außerordentlich starke Wirkung gegen Retroviren besitzen. Dies wird mit einem HIV-spezifischen Protease-Enzymtest belegt.
Die Ergebnisse der unten aufgeführten Beispiele wurden nach dem in den folgenden Literaturangaben [vgl. Hansen, J., Billich, S., Schulze, T., Sukrow, S. and Mölling, K. (1988), EMBO Journal, Vol, 7, No. 6, pp. 1785 - 1791] beschriebenen HIV-Testsystem ermittelt: Gereinigte HIV-Protease wurde mit synthetischem Peptid, das eine Schnittstelle im Gag-Precursor-Protein imitiert und eine in vivo-Spaltstelle der HIV-Protease darstellt, inkubiert Die entstandenen Spaltprodukte des synthetischen Peptids wurden über Reverse Phase High Performance Liquid Chromatography (RP-HPLC) analysiert. Die angegebenen IC₅₀-Werte beziehen sich auf die Substanzkonzentration, die unter den oben aufgeführten Testbedingungen eine 50%ige Hemmung der Protease-Aktivität bewirkt. Tabelle 1

The structures appear in SMILES notation.

Our source for the inhibition and IC50 values is patent EP0623605A2, “Substituted piperazines as antiretroviral medicaments” (BAYER AG, priority 1993, dated 1994).

Regarding `CC(CN1CCN(CCCC(c2ccc(F)cc2)c2ccc(F)cc2)CC1)Oc1ccc(F)cc1F` (racemic) [Beispiel 10, 1-[4,4-Bis-(4-fluorphenyl)butyl]-4-[(R/S)-2-(2,4-difluorphenoxy)propyl]piperazin], the inhibition at 240 µg/mL was found to be 77% and the IC50 amounted to 4800 nM.
Regarding `Cc1cccc(OC(C)CN2CCN(CCCC(c3ccc(F)cc3)c3ccc(F)cc3)CC2)c1C` (racemic) [Beispiel 37], the inhibition at 240 µg/mL was determined as 61%.
As for `CC(CN1CCN(CCCC(c2ccc(F)cc2)c2ccc(F)cc2)CC1)Oc1ccc(C(F)(F)F)cc1` (racemic) [Beispiel 40], the inhibition at 240 µg/mL came out at 84%.
The same measure, in the same setting: as for `CN(C)c1ccccc1OCCN1CCN(CCCC(c2ccc(F)cc2)c2ccc(F)cc2)CC1` [Beispiel 3, 1-[4,4-Bis-(4-fluorphenyl)butyl]-4-[2-(2-N,N-dimethylaminophenoxy)ethyl]piperazin], the figure is 76%.
Take `C[C@H]1CN(CCOc2ccc(F)cc2F)CCN1CCCC(c1ccc(F)cc1)c1ccc(F)cc1` [Beispiel 13, (S)-1-[4,4-Bis-(4-fluorphenyl)butyl]-2-methyl-4-[2-(2,4-difluorphenoxy)ethyl]piperazin]: the inhibition at 240 µg/mL worked out at 91% and the IC50 was 480 nM.
For `C[C@H]1CN(CCCC(c2ccc(F)cc2)c2ccc(F)cc2)CCN1CCOc1ccc(F)cc1F` [Beispiel 14, (S)-4-[4,4-Bis-(4-fluorphenyl)butyl]-2-methyl-1-[2-(2,4-difluorphenoxy)ethyl]piperazin], in that order: 99% and 1100 nM.
For `Fc1ccc(C(CCCN2CCN(CCOc3ccc(F)cc3F)CC2)c2ccc(F)cc2)cc1` [Beispiel 15], in that order: 92% and 400 nM.
Regarding `Cc1cccc(OCCN2CCN(CCCC(c3ccc(F)cc3)c3ccc(F)cc3)CC2)c1C` [Beispiel 16], the inhibition at 240 µg/mL was found to be 59%.
As for `Cc1cc(Cl)ccc1OCCN1CCN(CCCC(c2ccc(F)cc2)c2ccc(F)cc2)CC1` [Beispiel 17], the inhibition at 240 µg/mL was found to be 86% and the IC50 worked out at 500 nM.
With `COc1cc(C)ccc1OCCN1CCN(CCCC(c2ccc(F)cc2)c2ccc(F)cc2)CC1` [Beispiel 22], the inhibition at 240 µg/mL was 81%.
Regarding `Fc1ccc(C(CCCN2CCN(CCOc3cccc4c3CCCC4)CC2)c2ccc(F)cc2)cc1` [Beispiel 26], the inhibition at 240 µg/mL stood at 97% and the IC50 worked out at 1000 nM.
With `COc1cccc2c1OC(CN1CCN(CCCC(c3ccc(F)cc3)c3ccc(F)cc3)CC1)CC2` (centres unmarked) [Beispiel 27], the inhibition at 240 µg/mL is 78%.
On the same count and under the same terms, the result for `Cc1ccc(N(C)C)cc1OCCN1CCN(CCCC(c2ccc(F)cc2)c2ccc(F)cc2)CC1` [Beispiel 30] reads 81%; that for `Cc1ccc(N)cc1OCCN1CCN(CCCC(c2ccc(F)cc2)c2ccc(F)cc2)CC1` [Beispiel 32], 67%; that for `COC(=O)c1ccc(OCCN2CCN(CCCC(c3ccc(F)cc3)c3ccc(F)cc3)CC2)c(N(C)C(C)=O)c1` [Beispiel 33], 56%.
As to `CCN(C)c1cc(CO)ccc1OCCN1CCN(CCCC(c2ccc(F)cc2)c2ccc(F)cc2)CC1` [Beispiel 34], the inhibition at 240 µg/mL turned out to be 99% and the IC50 is 170 nM.
For `Cc1cc(Cl)ccc1OC(C)CN1CCN(CCCC(c2ccc(F)cc2)c2ccc(F)cc2)CC1` (centres unmarked) [Beispiel 39] the same measures were 77% and 1000 nM.
For `CC(CN1CCN(CCCC(c2ccc(F)cc2)c2ccc(F)cc2)CC1)Oc1cccc2c1CCCC2` (centres unmarked) [Beispiel 41] the same measures were 95% and 2100 nM.
For `COc1cccc2c1OC(CN1CCN(CCCC(c3ccc(F)cc3)c3ccc(F)cc3)C[C@@H]1C)CC2` (some centres unmarked) [Beispiel 44] the same measures were 99% and 26000 nM.
